Data: patent US6410588B1, “Use of cannabinoids as anti-inflammatory agents” (priority 1998, dated 2002)
Entries after “also recorded” stand apart in the source; their conditions may differ. Where two headings read alike, the source gives them in different places.

Columns and labels:
chronic CIA [1] = assay: chronic CIA, oral feeding of CBD; assay type: in vivo, mouse; conditions: 25 mg/kg oral daily
Description: Controls were fed vehicle (olive oil).
(§1) For the chronic experiments, 6 weeks old mice were immunized with mouse CII (100 μg CII i.d.=intradermal). From day 30 after immunization onwards, the mice developed a chronic relapsing arthritis, which was monitored for 5 weeks, in the same way as described above.
(§2) For the chronic experiment with mouse CII, mice were treated from the first symptoms of arthritis every other day, for 5 weeks. […] Again, mice injected with Vehicle alone served as controls (n=7). For the oral route, the treatment was administered daily at a dose of 25 mg/kg (n=6) and control mice were fed olive oil (n=6).

serum TNFα = serum TNFα level after LPS stimulation (bioassay); assay type: in vivo, mouse (C57BL/6); conditions: 10 mg/kg (200 μg/mouse) ip or s.c. with 100 μg LPS ip; 90 min
Description: After 90 min. the mice were bled and serum TNFα level was determined by bioassay.

TNFα = conditions: cited from earlier work
schizophrenia = conditions: in vivo; cited from earlier work
[2] = system: mRNA of IL-1, IL-6 and TNFα; conditions: BALB/C mice injected with cannabidiol; cited from earlier work
CB2 = CB2 (Homo sapiens, UniProt P34972); conditions: cited from earlier work
TNFα production = TNFα production by Thioglycollate induced macrophages; assay type: cell-based, mouse (C57BL/6); set-up: TNFα production, 6 h / TNFα production, 24 h: unit not given here; conditions: for inhibition at 2 µg/mL / inhibition at 4 µg/mL / inhibition at 6 µg/mL: Mus musculus, Macrophage
Excerpt: […] […] IFN-γ and IFN-α were purchased from Boehringer Mannheim, Germany.
Thioglycoiate-elicited peritoneal macrophages from C57BL/6 mice.

[3] = system: collagen induced arthritis (CIA); assay: acute CIA model, oral feeding of CBD; assay type: in vivo, mouse; conditions: 10 days
Description: The drug was administered by oral gavage. Control mice were fed vehicle (olive oil) along, as described in Materials and Methods. Results are expressed as a mean+/−SEM.
The doses used were 10 mg/kag, 25 mg/kg and 50 mg/kg (n=6 per group), corresponding to 2, 5, and 10 mg/kg i.p. respectively. Control mice were fed olive oil (n=6).

anticonvulsant effects = conditions: in vivo; cited from earlier work
TPA-induced erythema = conditions: applied topically; cited from earlier work
chronic CIA [4] = assay: chronic CIA model (mouse CII), CBD i.p.; assay type: in vivo; conditions: 5 weeks
Description: Results are expressed as a mean of 6 mice. The AUC for the control group is 38.4, and for the 5 mg/kg group 28.9.
as §1, §2

[5] = system: 51Cr-labeled P815 lymphoma cell line; assay: cell mediated cytotoxicity after mixed leukocyte culture; assay type: cell-based, mouse
Description: Cells harvested from MLC were tested for their cytotoxic activity against ^51Cr-labeled P815 (H-2^d)lymphoma cell line. Cytotoxic activity is given in LU/10^6cells (see Materials and Methods).
MHC-restricted CTL were activated in MLC by co-culturing 2.5×10^6 responding spleen cells for 5 days with an equal number of irradiated (25 Gy) allogeneic splenocytes in 2 ml/well of complete DMEM in 24-well plates (Costar).
Cytotoxic assays were performed as described previously (Leshem et al, 1999). Briefly, effector cells were serially diluted (threefold) in triplicate wells of conical-bottom microplates (Nunc) and mixed with washed ^51Cr-labeled target cells in a final 200 μl volume to make 4-6 effector target cell ratios. Microplates were centrifuged (70×g, 2 min.) and incubated for 4 h. They were then centrifuged at 200×g for 5 min. and the supernatants (150 μl) were counted in an automatic […] (LKB-Wallac, Finland). Percent of specific cytotoxic activity was calculated according to the formula: [(experimental cpm−background cpm)/(maximal cpm−background cpm)×100]. Lytic units (LU), were drawn from the cytotoxicity measured at 4-6 E:T cell ratios. One 1 LU is defined as the number of effector cells causing lysis of 30% target cells (Leshem and Brass, 1998).

[6] = system: Thioglycollate-elicited granulocytes; assay: viability of granulocytes in the ROI test; assay type: cell-based, mouse (C57BL/6)
Description: Thioglycollate-elicited granulocytes were harvested from C57BL/6 mice by sterile lavage with PBS 18 hrs. after intraperitoneal injection with 1.5 ml thioglycollate medium (1.5 ml in 3% solution). The cells were washed and resuspended at 5×10^5 cells/ml in Hanks' buffered salt solution without phenol red, and distributed at 0.5 ml/tube into luminometer plastic tubes. […] The tube was inserted into luminometer (Biolumate LB 95 oot Berhold Wildbad Germany) which had been prewarmed to 37° C. The granulocyte luminol-enhanced chemiluminescence response to zymosan was considered as the positive control.

[7] = LPS 1 μg/ml + IFNγ 10 U/ml, CBD 2 μg/ml, 24 h

Sequence of CB2 (P34972 whole entry, species assumed): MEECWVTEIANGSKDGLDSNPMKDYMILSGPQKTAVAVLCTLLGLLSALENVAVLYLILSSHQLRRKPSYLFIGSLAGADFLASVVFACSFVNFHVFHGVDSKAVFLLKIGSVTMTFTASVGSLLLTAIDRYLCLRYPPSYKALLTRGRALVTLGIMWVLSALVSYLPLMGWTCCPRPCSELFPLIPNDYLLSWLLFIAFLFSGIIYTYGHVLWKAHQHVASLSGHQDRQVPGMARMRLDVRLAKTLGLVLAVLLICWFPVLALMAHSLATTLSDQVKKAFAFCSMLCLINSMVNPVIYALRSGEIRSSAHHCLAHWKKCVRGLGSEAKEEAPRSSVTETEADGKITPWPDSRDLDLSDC

For `C=C(C)[C@@H]1CCC(C)=C[C@H]1c1c(O)cc(CCCCC)cc1O` [CBD, Cannabidiol], the “progression of chronic CIA (in words)” value (chronic CIA [1]) was “suppression of the progression of chronic CIA”, the “area under the curve of arthritis score” value (chronic CIA [1]; controls 72.3) was 49.7 and the “serum TNFα level (in words)” value (serum TNFα) was “decreases serum TNFα production; also recorded: reduces serum TNFα levels”. For the same compound, the TNFα production (TNFα) was “decreased”, the “antipsychotic effects in schizophrenia” value (schizophrenia) was “antipsychotic effects” and the “level of mRNA of IL-1, IL-6 and TNFα” value [2] was “did not show significant change”. For the same compound, the “binding to peripheral receptor CB2” value (CB2) was “does not bind”, the “TNFα production, 6 h” value (TNFα production; LPS 1 μg/ml + IFNγ 10 U/ml, CBD 2 μg/ml, 6 h) was 744 and the “% INHIBITION of TNFα production, 24 h” value (TNFα production; [7]) was “enhanced 72%”. For the same compound, the “TNFα production, 24 h” value (TNFα production; [7]) was 4578, the “TNFα production, 6 h” value (TNFα production; LPS 1 μg/ml + IFNγ 10 U/ml, CBD 4 μg/ml, 6 h) was 478 and the “TNFα production, 6 h” value (TNFα production; LPS 1 μg/ml + IFNγ 10 U/ml, CBD 6 μg/ml, 6 h) was 548. The “TNFα production, 24 h” value (TNFα production; LPS 1 μg/ml + IFNγ 10 U/ml, CBD 4 (μg/ml), 24 h) was 437, the “TNFα production, 24 h” value (TNFα production; LPS 1 μg/ml + IFNγ 10 U/ml, CBD 6 (μg/ml), 24 h) was 207 and the “TNFα production, 6 h” value (TNFα production; LPS 1 μg/ml, CBD 2 μg/ml, 6 h) was 543. The “TNFα production, 6 h” value (TNFα production; LPS 1 μg/ml, CBD 4 μg/ml, 6 h) was 271, the “TNFα production, 6 h” value (TNFα production; LPS 1 μg/ml, CBD 6 μg/ml, 6 h) was 290 and the “TNFα production, 24 h” value (TNFα production; LPS 1 μg/ml, CBD 2 (μg/ml), 24 h) was 90. The “TNFα production, 24 h” value (TNFα production; LPS 1 μg/ml, CBD 4 (μg/ml), 24 h) was 36, the “TNFα production, 24 h” value (TNFα production; LPS 1 μg/ml, CBD 6 (μg/ml), 24 h) was 34 and the inhibition at 2 µg/mL (TNFα production; 6 h, LPS 1 μg/ml + IFNγ 10 U/ml, CBD 2 μg/ml, 6 h, read-out: % INHIBITION of TNFα production, 6 h) was 0%. It also gave an inhibition at 4 µg/mL (TNFα production; 6 h, LPS 1 μg/ml + IFNγ 10 U/ml, CBD 4 μg/ml, 6 h, read-out: % INHIBITION of TNFα production, 6 h) of 33%, an inhibition at 6 µg/mL (TNFα production; 6 h, LPS 1 μg/ml + IFNγ 10 U/ml, CBD 6 μg/ml, 6 h, read-out: % INHIBITION of TNFα production, 6 h) of 24% and an inhibition at 2 µg/mL (TNFα production; 6 h, LPS 1 μg/ml, CBD 2 μg/ml, 6 h, read-out: % INHIBITION of TNFα production, 6 h) of 9%. It also gave an inhibition at 4 µg/mL (TNFα production; 6 h, LPS 1 μg/ml, CBD 4 μg/ml, 6 h, read-out: % INHIBITION of TNFα production, 6 h) of 54%, an inhibition at 6 µg/mL (TNFα production; 6 h, LPS 1 μg/ml, CBD 6 μg/ml, 6 h, read-out: % INHIBITION of TNFα production, 6 h) of 51% and an inhibition at 4 µg/mL (TNFα production; 24 h, LPS 1 μg/ml + IFNγ 10 U/ml, CBD 4 μg/ml, 24 h, read-out: % INHIBITION of TNFα production, 24 h) of 84%. It also gave an inhibition at 6 µg/mL (TNFα production; 24 h, LPS 1 μg/ml + IFNγ 10 U/ml, CBD 6 μg/ml, 24 h, read-out: % INHIBITION of TNFα production, 24 h) of 92%, an inhibition at 2 µg/mL (TNFα production; 24 h, LPS 1 μg/ml, CBD 2 μg/ml, 24 h, read-out: % INHIBITION of TNFα production, 24 h) of 67% and an inhibition at 4 µg/mL (TNFα production; 24 h, LPS 1 μg/ml, CBD 4 μg/ml, 24 h, read-out: % INHIBITION of TNFα production, 24 h) of 87%. For the same compound, the inhibition at 6 µg/mL (TNFα production; 24 h, LPS 1 μg/ml, CBD 6 μg/ml, 24 h, read-out: % INHIBITION of TNFα production, 24 h) was 88%, the “effect on TNFα production (in words)” value (TNFα production; low concentrations of CBD) was “enhance TNFα production” and the “effect on TNFα production (in words)” value (TNFα production; summary of Table 1) was “inhibits TNFα production”. The “suppression of arthritis (in words)” value ([3]; 25 mg/kg daily oral gavage) was “significantly better than the control group; also recorded: optimal dose”, the “suppression of arthritis (in words)” value ([3]; daily oral gavage after onset of arthritis) was “adequate suppression of the arthritis” and the anticonvulsant effects (anticonvulsant effects) was “anticonvulsant effects”. For the same compound, the TPA-induced erythema (TPA-induced erythema) was “reduce TPA-induced erythema”, the “suppression of chronic arthritis (in words)” value (chronic CIA [4]; 5 mg/kg i.p.) was “optimal in suppressing the arthritis” and the “area under the curve (AUC) of arthritis score” value (chronic CIA [4]; 5 mg/kg i.p., control group 38.4) was 28.9. The “suppression of chronic arthritis (in words)” value (chronic CIA [4]; 10 mg/kg i.p.) was “less effective than 5 mg/kg”, the cell mediated cytotoxicity ([5]; above approximately 1 μg/ml CBD) was “decrease in cytotoxicity” and the cell mediated cytotoxicity ([5]; low concentrations of CBD) was “increase cytotoxicity”. For the same compound, the “cell viability at the end of the experiment” value ([6]; CBD 6 μg/ml) was “All cells were viable” and the “cells available (viable)” value ([6]; after 1-2 hours of CBD treatment, 6 μg/ml) was “about 100%”.
